Measurements as given in patent EP4467137A1, “TREATMENT OF FRONTOTEMPORAL DEMENTIA OR FRONTOTEMPORAL LOBAR DEMENTIA” (Universidad Autónoma de Madrid, priority 2023, dated 2024).

Assays:
[1] = molecular target: T1, human lipoxygenase-5 (hLOX-5) (Homo sapiens, UniProt P09917); experiment: Inhibition of human lipoxygenase-5; type: biochemical; details: mean ± SD of three independent experiments in triplicate; read-out: LOX5 IC50
T1 sequence (P09917 1-674): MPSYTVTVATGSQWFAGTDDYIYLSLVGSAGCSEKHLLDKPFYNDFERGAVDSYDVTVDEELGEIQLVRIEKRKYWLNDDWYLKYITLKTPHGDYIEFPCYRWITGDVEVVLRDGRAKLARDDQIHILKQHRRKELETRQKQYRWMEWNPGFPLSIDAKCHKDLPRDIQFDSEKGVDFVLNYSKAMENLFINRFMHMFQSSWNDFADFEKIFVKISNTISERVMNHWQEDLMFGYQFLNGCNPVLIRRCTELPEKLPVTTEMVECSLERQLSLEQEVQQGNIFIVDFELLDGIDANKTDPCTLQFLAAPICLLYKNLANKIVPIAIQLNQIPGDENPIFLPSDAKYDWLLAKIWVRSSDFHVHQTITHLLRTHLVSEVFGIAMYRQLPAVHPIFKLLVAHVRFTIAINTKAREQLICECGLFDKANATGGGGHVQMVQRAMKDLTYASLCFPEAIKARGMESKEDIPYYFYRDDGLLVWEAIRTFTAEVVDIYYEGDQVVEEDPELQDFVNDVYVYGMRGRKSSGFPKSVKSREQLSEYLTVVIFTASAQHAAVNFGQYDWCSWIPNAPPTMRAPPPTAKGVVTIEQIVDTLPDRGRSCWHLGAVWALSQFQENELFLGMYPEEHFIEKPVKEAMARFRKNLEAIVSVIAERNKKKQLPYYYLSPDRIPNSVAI
Protocol: The inhibition of human lipoxygenase-5 (hLOX-5) was performed as described [Herrera-Arozamena, Clara et al. "Tuning melatonin receptor subtype selectivity in oxadiazolone-based analogues: Discovery of QR2 ligands and NRF2 activators with neurogenic properties." European journal of medicinal chemistry vol. 190 (2020): 112090. doi:10.1016/j.ejmech.2020.112090], Data are the mean ± SD of three independent experiments performed in triplicate.

TNF-α mRNA = experiment: qRT-PCR of TNFα in LPS-exposed BV2 cells; type: cell-based, mouse; details: 10 and 30 µM, 24 h LPS
Protocol: (§1) • Figure 1. Compound 1 reduces the inflammatory response against LPS in vitro. (A) Nitric oxide (NO) production in BV2 cells detected by DAF 24 h after LPS exposure and normalized by cell viability measured by MTT (n = 9). (B) qRT-PCR of TNFα (n = 9) in BV2 cells after 24 h LPS exposure. Sulforaphane (Sfn) was used as a positive control. […] Compound 1 decreases the inflammatory process 4 and 24 hours after LPS administration in vivo. Compound 1 (20 mg·kg^-1) daily was injected i.p. four days before the i.p. LPS (0.5 mg·kg^-1) administration. […] Compound 1 ameliorates the resolution of the inflammatory process triggered by LPS. […] (B) Locomotion activity measured by line crossings of an imaginary grid. […] Compound 1 reduced tau seeding in HEK-293 tau FRET biosensor measured by flow cytometer (C). […] Representative images of hyperphosphorylated tau intensity measured by AT8 and AT180 antibodies in three different regions of the hippocampus (GD, CA3 and CA1) (n = 11-12). (B) Quantification AT8 intensity, normalized to CA3 intensity of Sham animals. (C) Quantification of AT180 intensity, normalized to CA3 intensity of Sham animals (n = 9-12). […] Quantification of sarkosyl soluble (n = 10) (C) and insoluble species (D) using AT8 antibody (n = 10). Quantification of sarkosyl soluble (n = 10) (E) and insoluble species (F) using AT180 antibody (n = 10). […]

BV2 cells = experiment: Nitric oxide detection with DAF in LPS-exposed BV2 cells; type: cell-based, mouse; details: 24 h LPS
Protocol: as §1

SMILES: COc1ccc2c(c1)CC(c1c[nH]c3ccc(OC)cc13)N2 (stereo not shown) [Compound 1, 5-Methoxy-3-(5-methoxyindolin-2-yl)-1H-indole]
- IC50 [1]: 3.08 ± 0.29 µM
- TNF-α mRNA (TNF-α mRNA): reduced
- NO production (BV2 cells; 10 µM, BV2 cells): reduced to basal levels
- nitric oxide (NO) in BV2 cells exposed to LPS (BV2 cells; over the concentrations tested): concentration-dependent reduction
